Tests used:
Type in all cases: biochemical
TmUMPK = target: T1, TmUMPK (Thermotoga maritima, UniProt Q9X1U0); test: HPLC conversion, […] h; conditions: 1 mM substrate, 1.2 mM ATP, 2 mM MgCl2, 50 mM KCl, 5 mM DTT, Tris pH 7.6, 37 °C
T1 construct: gene pyrH; synthetic gene, full length, expressed in E. coli, 80 °C heat step and Ni-NTA; tag not described
T1 sequence (Q9X1U0 1-231): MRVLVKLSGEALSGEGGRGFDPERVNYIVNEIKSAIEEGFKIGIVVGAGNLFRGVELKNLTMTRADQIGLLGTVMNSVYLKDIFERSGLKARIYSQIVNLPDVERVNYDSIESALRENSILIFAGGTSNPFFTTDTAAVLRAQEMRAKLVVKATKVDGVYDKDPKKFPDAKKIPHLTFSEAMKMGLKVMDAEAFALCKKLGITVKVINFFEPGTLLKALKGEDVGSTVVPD

TmAcK = target: T2, TmAcK (Thermotoga maritima, UniProt Q9WYB1); test: HPLC conversion, […] h; conditions: 1 mM substrate, 1.2 mM acetyl phosphate, 2 mM MgCl2, 50 mM KCl, pH 7.6, 37 °C
T2 construct: gene ackA; synthetic gene, full length, expressed in E. coli, 80 °C heat step and Ni-NTA; tag not described
T2 sequence (Q9WYB1 1-403): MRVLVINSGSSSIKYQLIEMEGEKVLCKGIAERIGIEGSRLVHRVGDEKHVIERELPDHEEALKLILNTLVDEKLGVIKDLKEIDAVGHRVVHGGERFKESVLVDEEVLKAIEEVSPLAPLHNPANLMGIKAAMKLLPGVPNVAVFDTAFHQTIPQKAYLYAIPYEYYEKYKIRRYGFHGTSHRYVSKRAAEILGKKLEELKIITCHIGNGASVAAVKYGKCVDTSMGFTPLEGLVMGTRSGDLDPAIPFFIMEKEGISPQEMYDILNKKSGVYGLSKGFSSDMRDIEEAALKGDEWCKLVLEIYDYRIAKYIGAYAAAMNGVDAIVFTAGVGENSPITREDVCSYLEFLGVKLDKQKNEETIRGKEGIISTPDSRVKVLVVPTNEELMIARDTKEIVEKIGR

TmGMPK = target: T3, TmGMPK (Thermotoga maritima, UniProt Q9X215); test: TLC or HPLC, […] h cascade; conditions: 1 mM NMP, 1.2 mM ATP, 5 mM acetyl phosphate with TmAcK (ATP regeneration), 10 mM MgCl2, pH 7.6, 37 °C
T3 construct: gene gmk; synthetic gene, full length, expressed in E. coli, 80 °C heat step and Ni-NTA; tag not described
T3 sequence (Q9X215 1-207): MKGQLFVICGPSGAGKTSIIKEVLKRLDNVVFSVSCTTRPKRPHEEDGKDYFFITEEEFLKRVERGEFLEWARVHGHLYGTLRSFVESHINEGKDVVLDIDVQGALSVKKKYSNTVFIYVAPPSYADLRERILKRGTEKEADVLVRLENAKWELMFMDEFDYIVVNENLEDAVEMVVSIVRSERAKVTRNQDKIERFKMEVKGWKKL

Tm(d)CMPK = target: T4, Tm(d)CMPK (Thermotoga maritima, UniProt Q9X1F6); test: TLC or HPLC, […] h cascade; conditions: 1 mM NMP, 1.2 mM ATP, 5 mM acetyl phosphate with TmAcK (ATP regeneration), 10 mM MgCl2, pH 7.6, 37 °C
T4 construct: gene cmk; synthetic gene, full length, expressed in E. coli, 80 °C heat step and Ni-NTA; tag not described
T4 sequence (Q9X1F6 1-220): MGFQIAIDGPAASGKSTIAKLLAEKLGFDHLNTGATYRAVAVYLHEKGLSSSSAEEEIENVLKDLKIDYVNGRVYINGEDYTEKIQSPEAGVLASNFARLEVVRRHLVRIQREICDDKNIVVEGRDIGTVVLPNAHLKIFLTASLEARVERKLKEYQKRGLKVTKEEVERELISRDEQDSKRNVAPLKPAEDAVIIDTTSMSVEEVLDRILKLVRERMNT

TmPK = target: T5, TmPK (Thermotoga maritima, UniProt Q9WY51); test: HPLC conversion, […] h; conditions: 1 mM substrate, 1.2 mM phosphoenolpyruvate, 2 mM MgCl2, 50 mM KCl, pH 7.6, 37 °C
T5 construct: gene pyk; synthetic gene, full length, expressed in E. coli, 80 °C heat step and Ni-NTA; tag not described
T5 sequence (Q9WY51 1-466): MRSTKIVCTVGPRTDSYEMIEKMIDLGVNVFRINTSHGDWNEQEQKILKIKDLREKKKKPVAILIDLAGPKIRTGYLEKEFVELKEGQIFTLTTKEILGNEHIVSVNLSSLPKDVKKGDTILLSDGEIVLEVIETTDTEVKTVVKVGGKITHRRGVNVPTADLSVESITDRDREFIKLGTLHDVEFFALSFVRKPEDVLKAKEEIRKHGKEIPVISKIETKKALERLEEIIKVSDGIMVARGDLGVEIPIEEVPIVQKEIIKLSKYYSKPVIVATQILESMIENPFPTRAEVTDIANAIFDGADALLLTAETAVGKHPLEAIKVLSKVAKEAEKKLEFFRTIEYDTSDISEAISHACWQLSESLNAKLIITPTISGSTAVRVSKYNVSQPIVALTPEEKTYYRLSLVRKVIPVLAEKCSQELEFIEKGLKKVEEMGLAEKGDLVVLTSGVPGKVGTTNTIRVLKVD

TmAMPK = target: T6, TmAMPK (Thermotoga maritima, UniProt Q9X1I8); test: TLC or HPLC, […] h cascade; conditions: 1 mM NMP, 1.2 mM ATP, 5 mM acetyl phosphate with TmAcK (ATP regeneration), 10 mM MgCl2, pH 7.6, 37 °C
T6 construct: gene adk; synthetic gene, full length, expressed in E. coli, 80 °C heat step and Ni-NTA; tag not described
T6 sequence (Q9X1I8 1-220): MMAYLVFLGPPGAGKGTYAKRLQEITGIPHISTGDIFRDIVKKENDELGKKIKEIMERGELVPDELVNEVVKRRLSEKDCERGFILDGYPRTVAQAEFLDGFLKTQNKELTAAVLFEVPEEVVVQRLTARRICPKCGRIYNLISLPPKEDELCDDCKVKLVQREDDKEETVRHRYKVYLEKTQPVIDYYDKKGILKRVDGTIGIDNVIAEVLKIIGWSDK

TmRK = target: T7, TmRK (Thermotoga maritima, UniProt Q9X055); test: HPLC conversion, […] h; conditions: 1 mM substrate, 1.2 mM ATP, 2 mM MgCl2, 50 mM KCl, 5 mM DTT, Tris pH 7.6, 37 °C
T7 construct: gene rbsK; synthetic gene, full length, expressed in E. coli, 80 °C heat step and Ni-NTA; tag not described; PfkB family
T7 sequence (Q9X055 1-299): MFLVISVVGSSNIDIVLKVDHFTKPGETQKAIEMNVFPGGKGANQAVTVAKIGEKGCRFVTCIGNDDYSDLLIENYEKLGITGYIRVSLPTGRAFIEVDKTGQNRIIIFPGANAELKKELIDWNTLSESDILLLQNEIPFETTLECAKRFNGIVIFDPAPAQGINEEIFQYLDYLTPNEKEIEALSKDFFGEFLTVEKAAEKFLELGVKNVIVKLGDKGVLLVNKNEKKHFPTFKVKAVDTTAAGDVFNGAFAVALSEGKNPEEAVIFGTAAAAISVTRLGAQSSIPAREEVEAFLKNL

TmTK = target: T8, TmTK (Thermotoga maritima, UniProt Q9WYN2); test: HPLC conversion, […] h; conditions: 1 mM substrate, 1.2 mM ATP, 2 mM MgCl2, 50 mM KCl, 5 mM DTT, Tris pH 7.6, 37 °C
T8 construct: gene tdk; synthetic gene, full length, expressed in E. coli, 80 °C heat step and Ni-NTA; tag not described
T8 sequence (Q9WYN2 whole entry): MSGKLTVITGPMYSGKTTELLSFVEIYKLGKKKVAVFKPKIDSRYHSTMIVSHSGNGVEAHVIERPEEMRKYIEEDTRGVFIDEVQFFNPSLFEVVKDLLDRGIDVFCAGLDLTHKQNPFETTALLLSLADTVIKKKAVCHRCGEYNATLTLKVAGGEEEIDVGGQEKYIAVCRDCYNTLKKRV

Nc1ccn([C@@H]2O[C@H](COP(=O)(O)O)[C@@H](O)[C@H]2O)c(=O)n1 [cytidine 5′-monophosphate] was tested. Which “HPLC conversion, 19 h” value (TmUMPK) did it give?
The value was “TmUMPK which accepted all natural riboNMPs”.

With O=c1ccn([C@@H]2O[C@H](COP(=O)(O)OP(=O)(O)O)[C@@H](O)[C@H]2O)c(=O)[nH]1 [uridine 5′-diphosphate] as the compound, how does the “HPLC conversion, 19 h” value (TmAcK) read?
The value was “TmPK and TmAcK accepted all natural riboNDPs and deoxyriboNDPs”.

Which “TLC or HPLC, 19 h cascade” value (TmGMPK) does the source give for Nc1ncnc2c1ncn2[C@@H]1O[C@H](COP(=O)(O)O)[C@@H](O)[C@@H]1O [vidarabine phosphate] here?
Its value is “TmGMPK phosphorylated the sugar-modified NMPs araGMP, vidarabine phosphate, and araUMP”.

How did the “TLC or HPLC, 19 h cascade” value (Tm(d)CMPK) turn out when Nc1ccn([C@@H]2O[C@H](COP(=O)(O)O)[C@@H](O)[C@@H]2O)c(=O)n1 [cytarabine phosphate] was run?
Its value is “Tm(d)CMPK converted the sugar-modified substrates araCMP, araGMP, and araUMP”.

For Nc1nc2c(ncn2[C@@H]2O[C@H](COP(=O)(O)OP(=O)(O)O)[C@@H](O)[C@H]2O)c(=O)[nH]1 [guanosine 5′-diphosphate], which “HPLC conversion, 19 h” value (TmPK) is on record?
The value was “TmPK and TmAcK accepted all natural riboNDPs and deoxyriboNDPs”.

Which “TLC or HPLC, 19 h cascade” value (TmAMPK) does the source give for Nc1nc(F)nc2c1ncn2[C@@H]1O[C@H](COP(=O)(O)O)[C@@H](O)[C@@H]1O [fludarabine phosphate] here?
The value was “For TmAMPK, NTP formation was observed for all AMP analogs”.

How did the “HPLC conversion, 19 h” value (TmRK) turn out when O=c1ccn([C@@H]2O[C@H](CO)[C@@H](O)[C@H]2O)c(=O)[nH]1 [uridine] was run?
Its value is “it phosphorylates the natural nucleosides thymidine and uridine”.

And the “HPLC conversion, 19 h” value (TmTK)?
Its value is “TmTK accepted all deoxynucleosides and uridine”.

For Cc1cn([C@H]2C[C@H](O)[C@@H](CO)O2)c(=O)[nH]c1=O [thymidine], which “HPLC conversion, 19 h” value (TmRK) is on record?
The value was “it phosphorylates the natural nucleosides thymidine and uridine”.

What about the “HPLC conversion, 19 h” value (TmTK) of the same compound?
Its value is “TmTK accepted all deoxynucleosides and uridine”.

For O=c1ccn([C@@H]2O[C@H](COP(=O)(O)O)[C@@H](O)[C@H]2O)c(=O)[nH]1 [uridine 5′-monophosphate], which “HPLC conversion, 19 h” value (TmUMPK) is on record?
Its value is “TmUMPK which accepted all natural riboNMPs”.

From article PMC10248530, “Screening the Thermotoga maritima genome for new wide-spectrum nucleoside and nucleotide kinases” (The Journal of Biological Chemistry, 2023)
